Reference: ChEMBL document CHEMBL1201862, “PubChem BioAssay data set” (2004)
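Growth conditions: 96-well plates. Treatment: test compound, 48 hours, 5 concentrations. Analysis: linear interpolation between bracketing concentrations; unreached endpoints set to highest concentration. The concentration for 50% growth inhibition is given as GI50.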 Activity calls are given as the source filed them. No stated cut-off is given here; in the data, active = GI50 up to about 1.1 µM and inactive = higher.

Experiments:
Assay in all cases: growth of human tumour cells (NCI), 48 h
786-0 = system: 786-0
CCRF-CEM = system: CCRF-CEM
HCT-15 = system: HCT-15
HOP-62 = system: HOP-62
KM12 = system: KM12
MOLT-4 = system: MOLT-4
Malme-3M = system: Malme-3M
NCI-H23 = system: NCI-H23
NCI-H522 = system: NCI-H522
PC-3 = system: PC-3
SF-268 = system: SF-268
SNB-19 = system: SNB-19
SW-620 = system: SW-620
TK-10 = system: TK-10
UACC-62 = system: UACC-62
UO-31 = system: UO-31
DU-145 = system: DU-145
Hs-578T = system: Hs-578T
NCI/ADR-RES = system: NCI/ADR-RES
MCF7 = system: MCF7

SMILES | GI50 (786-0) | GI50 (CCRF-CEM) | GI50 (HCT-15) [µM] | GI50 (HOP-62) | GI50 (KM12) | GI50 (MOLT-4) | GI50 (Malme-3M) | GI50 (NCI-H23) | GI50 (NCI-H522) | GI50 (PC-3) | GI50 (SF-268) | GI50 (SNB-19) | GI50 (SW-620) | GI50 (TK-10) | GI50 (UACC-62) | GI50 (UO-31) | GI50 (DU-145) | GI50 (Hs-578T) | GI50 (NCI/ADR-RES) | GI50 (MCF7)
CC1=C2C(=CC(C)(C)[C@@H]2O)C(=O)[C@](C)(O)C12CC2 [ILLUDIN M] | 0.01 µM (active) | 0.0168 µM (active) | 0.0129 | 0.0185 µM (active) | 0.0284 µM (active) | 0.01 µM (active) | 0.022 µM (active) | < 0.0126 µM (active) | 0.0115 µM (active) | 0.0138 µM (active) | 0.0162 µM (active) | 0.027 µM (active) | 0.013 µM (active) | < 0.0182 µM (active) | 0.0208 µM (active) | 0.0246 µM (active) |  |  |  | 
CN(C)CCN1C(=O)N(CCN(C)C)c2c3cc(O)ccc3nc3c([N+](=O)[O-])ccc1c23 | 6.62 µM (inactive) | 0.538 µM (active) | 6.52 |  | 7.91 µM (inactive) |  | 15.8 µM (inactive) | 17.2 µM (inactive) | 16.6 µM (inactive) | 8.63 µM (inactive) | 8.47 µM (inactive) | 6.05 µM (inactive) | 4.92 µM (inactive) | 10.6 µM (inactive) | 15.9 µM (inactive) | 16.7 µM (inactive) | 10.7 µM (inactive) | 16.9 µM (inactive) | 19.4 µM (inactive) | 
CCCCCCCCCCCCOCC1(COCCCCCCCCCCCC)COC(c2ccc(N)cc2)OC1 | > 100 µM (inactive) |  | > 100 | > 100 µM (inactive) | > 100 µM (inactive) | > 100 µM (inactive) | > 100 µM (inactive) | > 100 µM (inactive) |  | > 100 µM (inactive) | > 100 µM (inactive) | > 100 µM (inactive) | > 100 µM (inactive) | > 100 µM (inactive) | > 100 µM (inactive) | > 100 µM (inactive) | > 100 µM (inactive) | > 100 µM (inactive) | > 100 µM (inactive) | > 100 µM (inactive)
Nc1nc(Cl)nc(NCc2ccccc2)n1 | > 100 µM (inactive) | > 100 µM (inactive) | > 100 | > 100 µM (inactive) | > 100 µM (inactive) | > 100 µM (inactive) | > 100 µM (inactive) | > 100 µM (inactive) |  | > 100 µM (inactive) | > 100 µM (inactive) | > 100 µM (inactive) | > 100 µM (inactive) | > 100 µM (inactive) | > 100 µM (inactive) |  | > 100 µM (inactive) | > 100 µM (inactive) | > 100 µM (inactive) | > 100 µM (inactive)
CC(=O)N1c2ccccc2[C@H]2CCc3c([nH]c4ccccc34)[C@H]21 | 15 µM (inactive) | 11.6 µM (inactive) | 11.3 | 12.6 µM (inactive) | 11.1 µM (inactive) | 11.2 µM (inactive) | 14.1 µM (inactive) | 9.53 µM (inactive) | 20.4 µM (inactive) | 23 µM (inactive) | 15.4 µM (inactive) | 24.3 µM (inactive) | 12 µM (inactive) | 41.5 µM (inactive) | 12.3 µM (inactive) | 6.31 µM (inactive) | 20.1 µM (inactive) | 21.9 µM (inactive) | 23.3 µM (inactive) | 
Clc1ccc(-c2ccc(-c3nnc(COc4ccc(OCc5nnc(-c6ccc(-c7ccc(Cl)cc7Cl)o6)o5)c(Cl)c4)o3)o2)c(Cl)c1 | > 100 µM (inactive) | 32.4 µM (inactive) | > 100 | 36.6 µM (inactive) | > 100 µM (inactive) | 28.4 µM (inactive) |  | > 100 µM (inactive) | > 100 µM (inactive) |  | 56.1 µM (inactive) | 61.7 µM (inactive) | > 100 µM (inactive) | 84.5 µM (inactive) | > 100 µM (inactive) | > 100 µM (inactive) | > 100 µM (inactive) | 83 µM (inactive) | > 100 µM (inactive) | > 100 µM (inactive)
c1cc(-c2ccc(-c3nc4ccc(C5=NCCN5)cc4s3)s2)ccc1C1=NCCN1 | 0.156 µM (active) | 0.0962 µM (active) | 2.17 | 0.187 µM (active) | 0.565 µM (active) | 0.0968 µM (active) | 1.02 µM (active) | 0.813 µM (active) | 0.114 µM (active) | 0.805 µM (active) | 0.214 µM (active) | 0.618 µM (active) | 1.02 µM (active) | 0.804 µM (active) | 1.12 µM (inactive) | 1.02 µM (active) | 0.19 µM (active) |  | 5.53 µM (inactive) | 0.0372 µM (active)
CN1CCCCC(C#N)(c2ccccc2)CC1 (stereo unspecified) | > 100 µM (inactive) | > 100 µM (inactive) | > 100 | > 100 µM (inactive) | > 100 µM (inactive) | > 100 µM (inactive) | > 100 µM (inactive) | > 100 µM (inactive) |  | > 100 µM (inactive) | > 100 µM (inactive) | > 100 µM (inactive) | > 100 µM (inactive) | > 100 µM (inactive) |  | > 100 µM (inactive) | > 100 µM (inactive) | > 100 µM (inactive) | > 100 µM (inactive) | > 100 µM (inactive)
COC(=O)C(/C(=N/NC(=O)c1ccncc1)C(=O)Nc1ccccc1OC)c1nc2ccc(Cl)cc2nc1O (stereo unspecified) | > 100 µM (inactive) | > 10 µM (inactive) | 63.5 | > 100 µM (inactive) | 92 µM (inactive) | > 100 µM (inactive) | > 100 µM (inactive) | > 100 µM (inactive) | > 100 µM (inactive) | > 100 µM (inactive) | > 100 µM (inactive) |  | > 100 µM (inactive) | > 100 µM (inactive) | > 100 µM (inactive) | 47 µM (inactive) |  | > 100 µM (inactive) | > 100 µM (inactive) | > 100 µM (inactive)
C#CCCCCC#Cc1ccccc1C(=O)C=[N+]=[N-] | > 100 µM (inactive) |  | > 100 | > 100 µM (inactive) |  | > 100 µM (inactive) |  | > 100 µM (inactive) | > 100 µM (inactive) | > 100 µM (inactive) | > 100 µM (inactive) | > 100 µM (inactive) | > 100 µM (inactive) | > 100 µM (inactive) | > 100 µM (inactive) | > 100 µM (inactive) | > 100 µM (inactive) | > 100 µM (inactive) |  | > 100 µM (inactive)
CC[C@@H]1/C=C/C=C/C[C@H](C)[C@@H](O)[C@](C)(O)C(=O)[C@H](C)[C@@H](O)[C@H](C)C(=O)[C@H](C)[C@@H](O)[C@H](C)/C=C/C(=O)O[C@H]2[C@@H](C)[C@@H](CC1)O[C@@]1(CC[C@@H](C)[C@@H](CC(C)O)O1)[C@@H]2C (stereo partly specified) | 1.85 µM (inactive) | 1.22 µM (inactive) | 1.86 |  | 1.69 µM (inactive) | 1.3 µM (inactive) | 3.49 µM (inactive) | < 0.01 µM (active) | < 0.01 µM (active) | < 0.01 µM (active) | 2.7 µM (inactive) | < 0.01 µM (active) | 2.92 µM (inactive) | 1.65 µM (inactive) | 1.71 µM (inactive) | 0.0307 µM (active) | 1.88 µM (inactive) | 2.88 µM (inactive) |  | < 0.01 µM (active)
CN(C)CC(O)CNC(=O)Nc1ccccc1 (stereo unspecified) | > 100 µM (inactive) | > 100 µM (inactive) | > 100 | > 100 µM (inactive) | > 100 µM (inactive) |  | > 100 µM (inactive) | > 100 µM (inactive) |  | > 100 µM (inactive) | > 100 µM (inactive) | > 100 µM (inactive) | > 100 µM (inactive) | > 100 µM (inactive) | > 100 µM (inactive) | > 100 µM (inactive) | > 100 µM (inactive) | > 100 µM (inactive) | > 100 µM (inactive) | > 100 µM (inactive)
COc1cc(/C=C2\N=C(c3ccccc3)N(c3cc4cc(Sc5ccccc5)ccc4[nH]3)C2=O)cc(OC)c1OC | 12.6 µM (inactive) | 16.9 µM (inactive) | 14.4 | 15 µM (inactive) | 15 µM (inactive) | 10.1 µM (inactive) | 2.96 µM (inactive) | 25.5 µM (inactive) | 2.96 µM (inactive) |  | 2.16 µM (inactive) | 23.2 µM (inactive) | 19.2 µM (inactive) |  | 10.1 µM (inactive) | 14.3 µM (inactive) | 15.2 µM (inactive) | 2.72 µM (inactive) | 20.2 µM (inactive) | 11.5 µM (inactive)
CN1N=C(c2ccccc2)c2cc(Cl)ccc2N=C1N/N=C/c1ccc(N(C)C)cc1 | > 100 µM (inactive) | > 100 µM (inactive) | 87.7 | > 100 µM (inactive) | > 100 µM (inactive) | 62.7 µM (inactive) |  | > 100 µM (inactive) | > 100 µM (inactive) | 58.5 µM (inactive) | > 100 µM (inactive) | > 100 µM (inactive) | > 100 µM (inactive) | > 100 µM (inactive) | > 100 µM (inactive) | > 100 µM (inactive) | > 100 µM (inactive) |  | > 100 µM (inactive) | > 100 µM (inactive)
COC(=O)[C@H](CNC(=O)/C=C/c1ccc(OC(C)=O)c(OC(C)=O)c1)NC(=O)/C=C/c1ccc(OC(C)=O)c(OC(C)=O)c1 | > 100 µM (inactive) | 39.3 µM (inactive) | 69.7 | > 100 µM (inactive) | > 100 µM (inactive) | > 100 µM (inactive) | 16.4 µM (inactive) | > 100 µM (inactive) |  | > 100 µM (inactive) | > 10 µM (inactive) | > 100 µM (inactive) | > 100 µM (inactive) |  | > 100 µM (inactive) |  | > 100 µM (inactive) | > 100 µM (inactive) | > 100 µM (inactive) | > 100 µM (inactive)
